Measurements reported in patent US20100266712A1, “Prevention of Acute Kidney Injury” (Austin Health, priority 2007, published 2010).

Tests used:
[1] = test system: high-risk cardiac surgical patients undergoing cardiopulmonary bypass
Method: (§1) Body weight adjusted dose of study medication was achieved by infusion of 154 mEq/L of sodium bicarbonate (Pfizer, Bentley, WA, Australia) or sodium chloride (Astra Zeneca, North Ryde, NSW, Australia) diluted in 5% dextrose (Baxter, Sydney, NSW, Australia) and H2O at an infusion rate of 3 mL kg^−1 h^−1 for 1 hour immediately after the induction of anesthesia, prior to the first surgical incision followed by continuous infusion at an infusion rate of 1 mL kg^−1 n^−1 over 23 hours. Sodium bicarbonate or sodium chloride was administered at a dose of 0.45 mEq/kg body weight over 1 hour followed by continuous intravenous infusion of 0.15 mEq/kg/hr over 23 hours (total dose of 4 mEq/kg over 24 hours).
Specific adverse events targeted for detection included the incidence of hypernatremia ([Na^+]>150 mEq/L), hypokalemia ([K^+]<3.5 mEq/L), alkalemia (pH>7.50), post-operative atrial fibrillation and other post-operative arrhythmias (supraventricular arrhythmias, ventricular tachycardia and ventricular fibrillation) during study treatment.
(§2) All data were analyzed according to the intention-to-treat principle. Continuous data were tested for normal distribution using histograms. Between-group comparisons for continuous data were performed with the use of the t test or the Mann-Whitney U test and for categorical data with the use of Fisher exact test or chi-square test where appropriate. All tests were 2-tailed and a P value <0.05 was taken to indicate statistical significance. Values were reported as means with standard error of the mean (SEM) and mean difference or odds ratio (OR) with 95% confidence interval (95% CI) estimate as appropriate.

[2] = test system: high-risk cardiac surgical patients undergoing cardiopulmonary bypass; remark: listed apart in the source
Method: A double-blind, randomised, placebo controlled trial of the effect of sodium bicarbonate on postoperative renal function and oxidative stress in subjects undergoing elective cardiopulmonary bypass surgery was conducted.
The Human Research Ethics Committee of the Austin Hospital approved the trial and the Therapeutic Goods Administration of the Australian Government, Department of Health and Ageing approved the use of sodium bicarbonate for this indication. Written informed consent was obtained from each patient. Patients were identified in surgical pre-admission clinics and on hospital wards. Patients who were enrolled were at high risk of post-operative AKI and were scheduled for elective cardiac surgery necessitating the use of CPB at a university tertiary referral hospital (Austin Hospital) and a co-located large private hospital (Warringal Hospital). Those considered at high risk for post-operative AKI, defined as fulfilling one or more pre-defined inclusion criteria and no exclusion criteria, were considered eligible. Patients at particular risk of post-bypass renal injury were defined as having at least one of the following: (a) age >70; (b) preoperative creatinine […]; (c) New York Heart Association symptom severity class 3 or 4; (d) valve surgery; (e) insulin dependent diabetes mellitus; or (f) redo surgery.
as §1
The hospital pharmacy clinical trials coordinator used a Microsoft Excel-based (Microsoft Corp. Redmond, Wash., USA) random number generator to create the randomization list using a permuted block strategy with blocks of six. Infusion bags were each delivered in separate shrink-wrapped black plastic bags that were identical in appearance. Allocation concealment to patients, anesthesiologists, cardiac surgeons, intensive care specialists, bedside nurses and investigators (multiple blind) was ensured by central randomization through the Department of Pharmacy at the Austin Hospital.
The primary study outcome measure was the number of patients who developed post-operative acute kidney injury. This was defined as an increase in plasma creatinine concentration greater than 0.5 mg/dL (44 μmol/L) or greater than 25% from baseline to peak value at any time within the first five post-operative days. This definition is identical to that used in a recent large randomized controlled trial of cardiac surgery-associated AKI.
The renal secondary outcomes for this study were changes in plasma creatinine concentration within the first five post-operative days and in urinary neutrophil gelatinase-associated lipocalin (NGAL) concentration within the first 24 hours post-operatively. Creatinine was sampled daily and NGAL was sampled prior to induction of anesthesia, at 6 hours and at 24 hours after commencement of CPB. Creatinine was measured using the modified Jaffé method and NGAL as recently described (Mishra et al, 2005).
All data were analyzed according to the intention-to-treat principle. Continuous data were tested for normal distribution using histograms. Between-group comparisons for continuous data were performed with the use of the t test or the Mann-Whitney U test and for categorical data with the use of Fisher exact test or chi-square test where appropriate.

[3] = test system: high-risk cardiac surgical patients undergoing cardiopulmonary bypass; remark: listed apart in the source
Method: as §1
Additional secondary outcomes included changes in acid-base status, clinical outcomes such as need for renal replacement therapy, duration of ventilation, length of intensive care unit and hospital stay, and adverse events.
as §2

[4] = from before to 24 hours after commencement of study infusion, N = 50
[5] = sodium bicarbonate vs sodium chloride
[6] = sodium bicarbonate vs sodium chloride, P<0.001

## O=C([O-])O.[Na+] [sodium bicarbonate]
[1]; during study treatment, both groups
  patients with plasma sodium concentration >150 mEq/L (hypernatremia): No patient
[1]; during study treatment, of 50 patients
  patients with an episode of supraventricular tachycardia: One
[1]; during study treatment, of 50 patients, P=0.24
  patients with a pH level greater than 7.50 (alkalemia): three
[1]; during treatment, patients/N, control 4/50, P>0.99
  incidence of new-onset atrial fibrillation: 5/50
[1]; patients/N, control 1/50, P=0.20
  patients with plasma potassium <3.5 mEq/L (hypokalemia): 5/50
[2]; baseline to peak within first 24 hours post-operatively, compared to sodium chloride, P=0.009, FIG. 1B
  increase in urinary NGAL concentration: attenuated
[2]; baseline to peak within first five post-operative days, mean ± SEM, P=0.01 vs sodium chloride
  relative increase in plasma creatinine: 28.5±6.5%
[2]; compared to sodium chloride patients, P=0.01, FIG. 1A
  absolute increase in plasma creatinine concentration: less
[2]; patients/N, control 15/50
  patients with a plasma creatinine increase greater than 50% from baseline to peak value: 8/50
[2]; patients/N, plasma creatinine increase >0.5 mg/dL (44 μmol/L) or >25% from baseline to peak within first five post-operative days, 4 mEq/kg i.v. over 24 hours
  patients who developed post-operative AKI: 16/50
[2]; vs. sodium chloride control group (26/50), 95% CI 0.19-0.98, P=0.04
  odds ratio for post-operative AKI: 0.43
[2]; vs. sodium chloride control, 95% CI 0.17-1.17, P=0.10
  odds ratio for plasma creatinine increase greater than 50%: 0.44
[2]; vs. sodium chloride control, 95% CI 1.1-39.0%
  absolute risk reduction for AKI: 20%
[3]; 6 and 24 hours after commencement of study drug infusion, P<0.001 vs control, FIG. 1C
  urine pH: induced urinary alkalinization
[3]; N = 50, P=0.60
  Length of stay in hospital, mean (SEM): 10.4 (1.0) days
[3]; N = 50, P=0.83
  Length of ventilation, mean (SEM): 1657 (299) min
[3]; N = 50, P=0.96
  Length of stay in intensive care unit, mean (SEM): 73.8 (14.0) hrs
[3]; N = 50, P>0.99
  Hospital deaths: 1 (2) no. (%)
  Renal replacement therapy: 2 (4) no. (%)
[3]; [4]
  Change in plasma base excess, mean (SEM): 3.8 (0.5)
  Change in plasma bicarbonate, mean (SEM): 3.7 (0.5) mEq/L
  Change in plasma pH, mean (SEM): 0.04 (0.01)
[3]; [5]
  Length of stay in hospital, Mean Difference: -0.8 days
  Length of stay in intensive care unit, Mean Difference: -1.0 h
  Length of ventilation, Mean Difference: -99 min
[3]; [6]
  Change in plasma base excess, Mean Difference: 6.0
  Change in plasma bicarbonate, Mean Difference: 5.2 mEq/L
  Change in plasma pH, Mean Difference: 0.07
